Tests used:
[1] = tested on: MDA-MB-468 (GFP-LC3) cells; test: GFP-LC3 punctae (autophagosome formation) microscopy assay; format: cell-based, human; settings: for GFP-LC3 punctae per cell: drug concentrations up to 100 μM; for EC50: Homo sapiens, MDA-MB-468, 24 hours of treatment, read-out: potency (EC50±S.E.M.) of autophagosome formation (GFP-LC3 punctae); for concentration at which precipitous cell death occurred: following 24 hours of treatment
Experimental: The human GFP-LC3 expression plasmid, pEGFP-LC3 (a gift from Drs. Grazia Ambrosini and Gary K. Schwartz, MSKCC), was stably transfected into MDA-MB-468 and selected with 0.5 mg/ml G418 sulfate. Stable populations were generated and compared to parental MDA-MB-468 for Sigma1 expression and autophagic and growth inhibitory response to Sigma ligands. GFP-LC3 translocation (punctae formation) was assessed by microscopy in MDA-MB-468 (GFP-LC3) stable cell populations. For microscopy-based experiments, cells were seeded onto Lab-Tek II glass chamber slides (Nalge Nunc International). […] Images of GFP-LC3 punctae were acquired with a Zeiss Axioplan 2 Imaging widefield microscope using Axiovision LE software. Punctae were counted using the spot quantitation program in the Fluoro-Chem software package (Alpha Innotech) and confirmed in parallel by manual counting. Autophagosome formation in MDAMB-468 (GFP-LC3) cells was quantitated as the mean number of GFP-LC3 punctae per GFP positive cell.
Initially, an established immunoblot-based assay to detect microtubule associated protein light chain 3 (LC3) lipidation was used to test for the activation of autophagy. […] Since transient transfections can produce spurious GFP-LC3 aggregates, stable GFP-LC3 transfected populations of MDA-MB-468 (GFP-LC3) were generated. […]

[2] = tested on: T-47D breast adenocarcinoma cells; test: Cell size by flow cytometry (mean FSC-H, G1 phase); format: cell-based, human; settings: 10 μM, 24 hours; control 412±5
Experimental: FIG. 31A is a differential interference contrast (DIC) image of MDA-MB-468 breast adenocarcinoma cells treated for ˜20 hours with DMSO (drug vehicle control), 10 μM IPAG (antagonist) or 10 μM PRE084 (agonist). A twenty-micron bar is shown in each image. Data are presented as mean±SEM. FIG. 31B is a graph illustrating the finding that IPAG diminished the mean cell size (FSC-H) of MDA-MB-468 breast tumor cells in a time-responsive manner. The mean FSC-H of 370±5 at to decreased to 323±4 after 24 hours of IPAG treatment and to 267±2 after 48 hours of treatment. Two-tailed t-tests were performed to determine statistical significance. For IPAG treatment compared to control (DMSO) and Sigma agonists (SKF and PRE084), P=0.0002 at d1 and P=0.00013 at d2. Data were generated from three to five independent determinations for each time-point. Flow cytometry was used to measure mean cell size (mean FSC-H) of T-47D breast adenocarcinoma cells. FIG. 31C is a bar graph illustrating T-47D cells treated for 24 hours with 10 μM indicated Sigma ligand. IPAG and BD 1047 (Sigma1 antagonists) diminished cell size from a mean FSC-H of 412±5 for control (DMSO) cells versus 341±7 and 381±8 for IPAG and BD1047 treated cells, respectively. […] Data represent 5 independent determinations (*P<0.05, ***P<0.001). FIG. 31D is a bar graph illustrating how IPAG (antagonist) decreases cell size in a dose responsive manner. T-47D were treated for 24 h with 1 and 10 μM IPAG, and mean FSC-H was measured. FIG. 31E is a graph illustrating that T47D cell size decreases over time. T-47D cells were treated for a total of 48 hours with 10 μM of the indicated Sigma ligands. […] Neither Sigma1 agonist, (+)-SKF10047 and PRE084, altered cell size. […] Two-tailed t-tests were performed to determine statistical significance. For IPAG treatment compared to control (DMSO) and Sigma1 agonists (SKF and PRE084), P=0.0002 at d1 and P<0.0001 at d2. For FIGS. 31B-31E, the mean FSC-H was determined for each cell cycle population (i.e., G1, S, G2/M), and data is shown for G1 phase cells. S and G2/M phase cells responded similarly (data not shown).

[3] = tested on: MDA-MB-468 breast tumor cells; test: Akt, S6K and ERK phosphorylation immunoblots; format: cell-based, human; settings: 10 μM, 24 hours
Experimental: FIG. 40, comprising FIGS. 40A-40C, illustrates Sigma1 antagonist modulation of Akt, S6K, and ERK phosphorylation. MDA-MB-468 breast tumor cells were treated for 24 hours with 10 μM IPAG (Sigma1 antagonist) or (+)SKF-10047 (SKF, Sigma1 agonist). Treated cells were harvested and cellular proteins were extracted with a buffer containing 1% Sodium Dodecyl Sulfate (SDS) and deoxycholate (DOC), supplemented with phosphatase and protease inhibitors. FIG. 40A is an image of an immunoblot illustrating Akt phosphorylation. […] Akt phosphorylation at threonine 308 was not altered in any of the samples (not shown). Equivalent loading was confirmed with an anti-GAPDH antibody. FIG. 40B is an image of an immunoblot illustrating phosphorylation. Phosphorylation of mTOR substrate, p70S6K at threonine 389 decreased 3-fold in IPAG, but not SKF treated cells. Total p70S6K was immunoblotted as a loading control. FIG. 40C is an immunoblot illustrating that p44/42 ERK1/2phosphorylation at threonine 202 and tyrosine 204 was abrogated by 24 hour treatment with IPAG. Data shown is representative of two independent experiments.

[4] = tested on: MCF-7, T47D and MDA-MB-468 cells; test: Cell proliferation by Alamar blue reduction, breast adenocarcinoma cultures; format: cell-based, human; parameters: anti-proliferative effect: dose or concentration left out as unconfirmed; settings: for anti-proliferative effect: 4 days; for inhibition of cell proliferation: after 4 days of treatment, six drug concentrations
From the text: In vitro cell proliferation was quantitated by Alamar blue reduction. The anti-proliferative effects of six drug concentrations of the indicated drugs were quantitated after 4 days of treatment.

[5] = tested on: T47D and MDA-MB-468 cells; test: Cell cycle profile (G1, S, G2 phase cells); format: cell-based, human; settings: 24 hours; IPAG 1 μM (T47D) or 10 μM (MDA-MB-468); (+)-SKF-10047 10 μM
Experimental: FIG. 30, comprising FIGS. 30A-30B, illustrates that Sigma1 antagonists mediate cell cycle arrest. […] FIG. 30A is a graph illustrating the percentage of G1, S, and G2 phase cells in T47D cells treated for 24 hours with DMSO (vehicle control), 1 μM IPAG (Sigma1 antagonist), or 10 μM (+)SKF-10047 (Sigma1 agonist). FIG. 30 B is a graph illustrating the percentage of G1, S, and G2 phase cells in MDA-MB-468 cells treated for 24 hours with DMSO (vehicle control), 10 μM IPAG (Sigma1 antagonist), or 10 μM (+)-SKF-10047 (Sigma1 agonist).

[6] = tested on: MDA-MB-468 cells; test: Cell death by trypan blue exclusion; format: cell-based, human; settings: 3-MA alone (5 mM), 24 hours
Experimental: Trypan blue exclusion and propidium iodide staining were used to quantify general cell death and the presence of apoptotic cell death was confirmed by immunoblot. The percentage of dead cells in a given population was determined by quantifying the number of trypan blue positive (dead) cells and dividing by the total number of trypan blue positive and negative cells.

[7] = tested on: MDA-MB-468 breast adenocarcinoma cells; test: LC3 lipidation (LC3II) immunoblot; format: cell-based, human; settings: 10 μM, 24 hours
Experimental: Cells were lysed and proteins extracted in a modified RIPA buffer (25 mM Tris-HCl pH 7.6, 150 mM NaCl, 1% NP-40, 1% sodium deoxycholate and 0.1% SDS) supplemented with 10% glycerol (volume/volume), complete protease inhibitor cocktail (Roche), and Halt phosphatase inhibitor cocktail (Pierce). Approximately 10-20 μg of detergent soluble protein were resolved on NOVEX 10-20% polyacrylamide Tris-glycine gels (InVitrogen). Immunoblots were performed in a 20 mM Tris-buffered 137 mM saline solution (pH 7.6) containing 0.1% Tween-20 (polyoxyethylene (20) sorbitan monolaurate) and 5% (weight/volume) blotting grade non-fat dry milk (BioRad). The Lumigen PS-3 enhanced chemiluminescence kit (GE Healthcare) was used to reveal immunoblotted proteins.
Initially, an established immunoblot-based assay to detect microtubule associated protein light chain 3 (LC3) lipidation was used to test for the activation of autophagy. […] Since transient transfections can produce spurious GFP-LC3 aggregates, stable GFP-LC3 transfected populations of MDA-MB-468 (GFP-LC3) were generated. These cells were treated for 24 hours with increasing concentrations of Sigma receptor antagonists and agonists, and were compared to basal and DMSO treated controls (FIGS. 4B & 4C).

[8] = tested on: MCF7 tumor xenograft; test: MCF7 tumor xenograft, tamoxifen potentiation by rimcazole; format: in vivo, athymic mice; settings: for inhibition of tumor growth: after 11 days of daily i.p. treatment, tamoxifen 1 mg/kg, Rimcazole 10 mg/kg, each alone
Experimental: Preliminary tumor xenograft experiments were performed according to MSKCC Tumor Assessment Core facility protocol. Briefly, β-estradiol treated athymic mice were injected with MCF7 cells, and drug treatment was initiated when mean tumor volume reached approximately 140 mm^3, which occurred 17 days following MCF-7 injection. Daily i.p. drug injections were performed for up to 11 days, and tumor volume was quantified by the formula: tumor volume=L×W^2×π/6. In this pilot experiment, 3-5 mice were tested per group. […] An extended time course, with more mice per group and multiple drug doses, may be performed to determine whether the tumor growth inhibitory effect of combined drug treatment is additive or synergistic.

C=CCN1CC[C@]2(C)c3cc(O)ccc3C[C@H]1[C@H]2C (relative stereo) [(+)-SKF10047, [2S-(2α,6α,11R*]-1,2,3,4,5,6-hexahydro-6,11-dimethyl-3-(2-propenyl)-2,6-methano-3-benzazocin-8-ol]
GFP-LC3 punctae per cell ([1]; 24 hours): ≤ 5±1 punctae per cell
mean FSC-H (relative cell size) [2]: did not alter cell size
decrease of Akt phosphorylation at serine 473 [3]: did not alter Akt phosphorylation
anti-proliferative effect [4]: ineffective
cell cycle profile [5]: did not present significant difference in cell cycle profile

CC(C)=CCN1CC[C@]2(C)c3cc(O)ccc3C[C@H]1[C@H]2C (relative stereo) [(+)-pentazocine, (+)-[2S-(2,6,11R*)]-1,2,3,4,5,6-hexahydro-6,1-dimethyl-3-(3-methyl-2-butenyl)-2,6-methano-3-benzazocin-8-ol]
GFP-LC3 punctae per cell ([1]; 24 hours): ≤ 6±1 punctae per cell
anti-proliferative effect [4]: ineffective

CN(C)CCN(C)CCc1ccc(Cl)c(Cl)c1 [BD1047, N′-[2-(3,4-dichlorophenyl)ethyl]-N,N,N′-trimethylethane-1,2-diamine]
mean FSC-H (relative cell size) [2]: 381±8
inhibition of cell proliferation [4]: also inhibited cell proliferation

CN1CCN(CCc2ccc(Cl)c(Cl)c2)CC1 [BD1063, 1-[2-(3,4-dichlorophenyl)ethyl]-4-methylpiperazine]
inhibition of cell proliferation [4]: also inhibited cell proliferation

Cn1cnc(N)c2ncnc1-2 [Compound 3-MA, 3-methyladenine]
punctae per cell ([1]; 5 mM 3-MA alone, 24 hours): 5±1 punctae per cell
dead cells per well [6]: 6±2%

COc1cccc2c1CCCC2CCCN1CCN(C2CCCCC2)CC1 (centres unmarked) [PB28, 1-cyclohexyl-4-[3-(5-methoxy-1,2,3,4-tetra-hydronaphthalen-1-yl)propyl]piperazine]
EC50 [1]: 52 ± 9 µM
concentration at which precipitous cell death occurred [1]: 100 µM
conversion of LC3 to LC3II (autophagosome formation) [7]: converted LC3 to LC3II

C[C@@H]1CN(CCCn2c3ccccc3c3ccccc32)C[C@H](C)N1 [rimcazole, 9-{3-[(3R,5S)-3,5-dimethylpiperazin-1-yl]propyl}-9H-carbazole]
EC50 [1]: 50 ± 8 µM
concentration at which precipitous cell death occurred [1]: 100 µM
conversion of LC3 to LC3II (autophagosome formation) [7]: converted LC3 to LC3II
inhibition of tumor growth [8]: approximately 50%
tumor growth ([8]; tamoxifen (1 mg/kg) and Rimcazole (10 mg/kg) combined, 11 day time course): completely inhibited
inhibition of cell proliferation [4]: inhibited cell proliferation with comparable potencies in all cell lines

CC/C(=C(\c1ccccc1)c1ccc(OCCN(C)C)cc1)c1ccccc1 [tamoxifen, (Z)-2-[4-(1,2-diphenylbut-1-enyl)phenoxy]-N,N-dimethylethanamine]
inhibition of tumor growth [8]: approximately 50%
inhibition of cell proliferation [4]: inhibited cell proliferation with similar potencies

— patent US9388126B2, “Sigma receptor ligands and methods of modulating cellular protein homeostasis using same” (Drexel University, priority 2012, dated 2016)
